We go through 21 molecules from US11952330B2, “Antibiotic ammonium compounds and methods for the treatment of bacterial infections” (priority 2019, dated 2024).

Like-named read-outs stand apart in the source and are kept apart here.

Type in all cases: cell-based
For data set [1], the system named is A. baumannii. Put plainly: MIC by broth dilution in presence of 5% human plasma (esterases), A. baumannii. The protocol: The antibacterial efficacy of ammonium compounds in the presence of human plasma was assessed. Minimum inhibitory concentrations (MICs) were determined by broth dilution method. Dilutions of each compound, ranging from 1 μg/mL to 256 μg/mL (final concentrations) were prepared in Mueller-Hinton broth. For the plasma containing samples, compound dilutions were made in Mueller-Hinton broth and supplemented with 5% (final %) human plasma (esterases). Compound dilutions were added to wells of a 96-well plate, with the concentration of the compound increasing 2-fold by row. Each well contained 5×10^5 CFU/mL of target bacterium in a total volume of 100 μL. Plates were incubated overnight at 37° C. The following day, plates were evaluated for a visual change in growth to determine the MIC. The concentration value corresponding to the first row that no longer had visible bacterial growth, as evaluated by turbidity in the wells, was recorded as the MIC. MIC values were representative of at least biological duplicates, each made up of technical triplicates.

For data set [2], the system named is A. baumannii. Put plainly: MIC by broth dilution, A. baumannii. The settings on record: Acinetobacter baumannii, Mueller-Hinton broth. In short, it runs like this: (§1)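 Broth dilution in Mueller-Hinton broth with 2-fold compound steps over 1–256 μg/mL (final) and 5×10^5 CFU/mL inoculum, incubated overnight at 37 °C. The MIC is the lowest concentration without visible turbidity, from at least biological duplicates of technical triplicates. A parallel series was supplemented with 5% (final) human plasma.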

The subject of data set [3] is S. aureus. Put plainly: MIC by broth dilution, S. aureus. The settings on record: for MIC: Staphylococcus aureus, Mueller-Hinton broth. In short, it runs like this: as §1
In data set [4] the test system is human red blood cell. Put plainly: In vitro hemolysis assay. The note with it: for % hemolysis at 16 μg/ml / % hemolysis at 32 μg/ml: human RBCs, 37° C., 1 hour. The protocol: The hemolytic potential of ammonium compounds were assessed in vitro. A human red blood cell solution (RBC) was prepared by washing 400 μL of fresh RBCs twice with 7 mL of 1×PBS (pH 7.4) by centrifugation at 4° C., 2500 rpm for 10 minutes. The precipitates were then resuspended in 4 mL of 1×PBS. Hemolysis testing was performed by mixing 500 μL of freshly prepared test compound solutions at a final concentration of both 16 μg/mL and 32 μg/mL in 1×PBS with 400 μL of the washed human RBCs. Two control samples were prepared by separately mixing 400 μL of washed RBCs with 500 μL of 1×PBS (negative control) and 1% Triton X-100 (w/v). After incubation in a water bath at 37° C. for 1 hour, the samples were centrifuged at 2500 rpm for 10 minutes. 300 μL of the supernatant were collected for measurement in a 96-well plate. The release of hemoglobin was assessed by measuring the absorbance of the samples at 540 nm using 1×PBS as the blank. Hemolysis percent was calculated using Equation 1: […]

[5] abbreviates: no plasma, Table 2, read-out: MIC (μg/ml) A. baumannii.
The mark [6] stands for this setting: overnight 37° C., Table 1, read-out: MIC (μg/mL) A. baumannii.
Setting [7] is: no plasma, Table 2, read-out: MIC (μg/ml) S. aureus.
[8] abbreviates: overnight 37° C., Table 1, read-out: MIC (μg/mL) S. aureus.

In the case of `CCCCCCCCOc1ccccc1C(=O)Nc1ccc(C(=O)OCC[N+](C)(C)C)cc1.[Br-]` [Compound 11, N,N,N-Trimethyl-2-((4-(2-(octyloxy)benzamido)benzoyl)oxy)ethan-1-aminium bromide], in data set [1] (broth supplemented with 5% human plasma (esterases) vs no plasma), the “Δ MIC A. baumannii + human plasma” value was found to be 8X. In addition, the MIC in data set [2] (setting [5]), in data set [2] (setting [6]), in data set [3] (setting [7]) and in data set [3] (setting [8]) was 3 to 30 µg/mL in each case. Further, the “% hemolysis at 16 μg/ml” value in data set [4] amounted to 7%. The “% hemolysis at 32 μg/ml” value in data set [4] turned out to be 92%.

As for `CCCCCCCCOc1cccc(OCCCCCCCC)c1C(=O)Nc1ccc(C(=O)OCC[N+](C)(CC)CC)cc1.[Br-]` [Compound 17, 2-((4-(2,6-Bis(octyloxy)benzamido)benzoyl)oxy)-N,N-diethyl-N-methylethan-1-aminium bromide], the “stability in the presence of enzymes that are found in the gut, compared with otilonium bromide (11), in words” value in data set [1] (5% human plasma) is “better stability than otilonium bromide”. Further, the MIC in data set [2] (setting [5]) is over 30 µg/mL; in data set [2] (setting [6]), over 30 µg/mL; in data set [3] (setting [7]), under 3 µg/mL; in data set [3] (setting [8]) it was 3 to 30 µg/mL. Besides, the “antimicrobial activity against Gram positive S. aureus relative to otilonium bromide, in words” value in data set [3] is given as “comparable or better than the activity of otilonium bromide”. Besides, the “selectivity for Gram positive microbes over Gram negative microbes, in words” value in data set [3] (S. aureus vs A. baumannii) is “virtually complete selectivity for Gram positive microbes”. Moreover, the “% hemolysis at 16 μg/ml” value in data set [4] is given as 59%. Also, the “% hemolysis at 32 μg/ml” value in data set [4] turned out to be 90%. In data set [4] (16 and 32 μg/mL), the “hemolysis as compared to otilonium bromide (11), in words” value is reported as “reduced hemolysis as compared to otilonium bromide”.

For `CCCCCCCOc1ccccc1C(=O)Nc1ccc(S(=O)(=O)NCC[N+](C)(CC)CC)cc1.[Br-]` [Compound 79, N,N-Diethyl-2-((4-(2-(heptyloxy)benzamido)phenyl)sulfonamido)-N-methylethan-1-aminium bromide], the MIC is over 30 µg/mL in data set [2] (setting [6]) and 3 to 30 µg/mL in data set [3] (setting [8]).

For the molecule `CCCCCCCCOc1ccccc1C(=O)Nc1ccc(C(=O)NC2CC[N+](C)(CC)CC2)cc1.[Br-]` (stereo not shown) [Compound 80, 1-Ethyl-1-methyl-4-(4-(2-(octyloxy)benzamido)benzamido)piperidin-1-ium bromide], the MIC was over 30 µg/mL in data set [2] (setting [6]) and 3 to 30 µg/mL in data set [3] (setting [8]).

For the molecule `CCCCCCCOc1ccccc1C(=O)Nc1ccc(C(=O)NC2CC[N+](C)(CC)CC2)cc1.[Br-]` (stereo not shown) [Compound 81, 1-Ethyl-4-(4-(2-(heptyloxy)benzamido)benzamido)-1-methylpiperidin-1-ium bromide], the MIC in data set [2] (setting [6]) and in data set [3] (setting [8]) was over 30 µg/mL throughout.

As to `CCCCCCCCOc1ccccc1C(=O)Nc1ccc(S(=O)(=O)NCC[N+](CC)(CC)CCC)cc1.[Br-]` [Compound 82, N,N-Diethyl-N-(2-((4-(2-(octyloxy)benzamido)phenyl)sulfonamido)ethyl)propan-1-aminium bromide], the MIC in data set [2] (setting [6]) and in data set [3] (setting [8]) was 3 to 30 µg/mL each time.

Take `CCCCCCCOc1ccccc1C(=O)Nc1ccc(S(=O)(=O)NCC[N+](CC)(CC)CCC)cc1.[Br-]` [Compound 83, N,N-Diethyl-N-(2-((4-(2-(heptyloxy)benzamido)phenyl)sulfonamido)ethyl)propan-1-aminium bromide]: the MIC was over 30 µg/mL in data set [2] (setting [6]) and 3 to 30 µg/mL in data set [3] (setting [8]).

Turning to `CCCCCCCCOc1ccccc1C(=O)Nc1ccc(C(=O)NC2CC[N+](CC)(CCC)CC2)cc1.[Br-]` (stereo not shown) [Compound 84, 1-Ethyl-4-(4-(2-(octyloxy)benzamido)benzamido)-1-propylpiperidin-1-ium bromide], the MIC was over 30 µg/mL in data set [2] (setting [6]) and 3 to 30 µg/mL in data set [3] (setting [8]).

As to `CCCCCCCOc1ccccc1C(=O)Nc1ccc(C(=O)NC2CC[N+](CC)(CCC)CC2)cc1.[Br-]` (stereo not shown) [Compound 85, 1-Ethyl-4-(4-(2-(heptyloxy)benzamido)benzamido)-1-propylpiperidin-1-ium bromide], the MIC in data set [2] (setting [6]) is over 30 µg/mL; in data set [3] (setting [8]), 3 to 30 µg/mL.

Turning to `CCCCCCCCOc1ccc(F)cc1C(=O)Nc1ccc(C(=O)OCC[N+](C)(CC)CC)cc1.[Br-]` [Compound 86, N,N-Diethyl-2-((4-(5-fluoro-2-(octyloxy)benzamido)benzoyl)oxy)-N-methylethan-1-aminium bromide], the MIC in data set [2] (setting [6]) is 3 to 30 µg/mL; in data set [3] (setting [8]), under 3 µg/mL.

Take `CCCCCCCCOc1cc(F)ccc1C(=O)Nc1ccc(C(=O)OCC[N+](C)(CC)CC)cc1.[Br-]` [Compound 87, N,N-Diethyl-2-((4-(4-fluoro-2-(octyloxy)benzamido)benzoyl)oxy)-N-methylethan-1-aminium bromide]: the MIC in data set [2] (setting [6]) is over 30 µg/mL; in data set [3] (setting [8]) it was 3 to 30 µg/mL.

Consider `CCCCCCCCOc1cccc(F)c1C(=O)Nc1ccc(C(=O)OCC[N+](C)(CC)CC)cc1.[Br-]` [Compound 88, N,N-Diethyl-2-((4-(2-fluoro-6-(octyloxy)benzamido)benzoyl)oxy)-N-methylethan-1-aminium bromide], for which the results for the MIC in data set [2] (setting [6]) and in data set [3] (setting [8]) were over 30 µg/mL and 3 to 30 µg/mL, respectively.

Turning to `CCCCCCCCOc1c(F)cccc1C(=O)Nc1ccc(C(=O)OCC[N+](C)(CC)CC)cc1.[Br-]` [Compound 89, N,N-Diethyl-2-((4-(3-fluoro-2-(octyloxy)benzamido)benzoyl)oxy)-N-methylethan-1-aminium bromide], the MIC in data set [2] (setting [6]) is over 30 µg/mL; in data set [3] (setting [8]), 3 to 30 µg/mL.

For the molecule `CCCCCCCCOc1ccccc1C(=O)Nc1ccc(C(=O)OCC[N+](C)(CC)CC)c(F)c1.[Br-]` [Compound 90, N,N-Diethyl-2-((2-fluoro-4-(2-(octyloxy)benzamido)benzoyl)oxy)-N-methylethan-1-aminium bromide], the MIC in data set [2] (setting [6]) and in data set [3] (setting [8]) was 3 to 30 µg/mL throughout.

For `CCCCCCCCOc1ccccc1C(=O)Nc1ccc(C(=O)OCC[N+](C)(CC)CC)cc1F.[Br-]` [Compound 91, N,N-Diethyl-2-((3-fluoro-4-(2-(octyloxy)benzamido)benzoyl)oxy)-N-methylethan-1-aminium bromide], the MIC in data set [2] (setting [6]) is over 30 µg/mL; in data set [3] (setting [8]), 3 to 30 µg/mL.

Consider `CCCCCCOc1ccccc1C(=O)Nc1ccc(S(=O)(=O)NCC[N+](CC)(CC)CCCCC)cc1.[Br-]` [Compound 92, N,N-Diethyl-N-(2-((4-(2-(hexyloxy)benzamido)phenyl)sulfonamido)ethyl)pentan-1-aminium bromide], for which the MIC in data set [2] (setting [6]) is over 30 µg/mL; in data set [3] (setting [8]), 3 to 30 µg/mL.

For `CCCCCCCOc1ccccc1C(=O)Nc1ccc(S(=O)(=O)NCC[N+](CC)(CC)CCCC)cc1.[Br-]` [Compound 93, N,N-Diethyl-N-(2-((4-(2-(heptyloxy)benzamido)phenyl)sulfonamido)ethyl)butan-1-aminium bromide], the MIC is over 30 µg/mL in data set [2] (setting [6]) and 3 to 30 µg/mL in data set [3] (setting [8]).

For `CCCCCCOc1cc(F)ccc1C(=O)Nc1ccc(S(=O)(=O)NCC[N+](CC)(CC)CCCCC)cc1.[Br-]` [Compound 94, N,N-Diethyl-N-(2-((4-(4-fluoro-2-(hexyloxy)benzamido)phenyl)sulfonamido)-ethyl)pentan-1-aminium bromide], the MIC in data set [2] (setting [6]) and in data set [3] (setting [8]) was 3 to 30 µg/mL in each case.

Regarding `CCCC(CCC)Oc1ccccc1C(=O)Nc1ccc(C(=O)OCC[N+](C)(CC)CC)cc1.[Br-]` [Compound 96, N,N-Diethyl-2-((4-(2-(heptan-4-yloxy)benzamido)benzoyl)oxy)-N-methylethan-1-aminium bromide], the MIC in data set [2] (setting [6]) is over 30 µg/mL; in data set [3] (setting [8]), 3 to 30 µg/mL.

Turning to `CC[N+](C)(CC)CCOC(=O)c1ccc(NC(=O)c2ccccc2OCCCCC(C)C)cc1.[Br-]` [Compound 97, N,N-Diethyl-N-methyl-2-((4-(2-((5-methylhexyl)oxy)benzamido)benzoyl)oxy)-ethan-1-aminium bromide], the MIC is over 30 µg/mL in data set [2] (setting [6]) and 3 to 30 µg/mL in data set [3] (setting [8]).

For the molecule `CC[N+](C)(CC)CCOC(=O)c1ccc(NC(=O)c2ccccc2OC2CCC(C)CC2)cc1.[Br-]` (stereo not shown) [Compound 98, N,N-Diethyl-N-methyl-2-((4-(2-(((1s,4s)-4-methylcyclohexyl)oxy)benzamido)-benzoyl)oxy)ethan-1-aminium bromide], the MIC in data set [2] (setting [6]) and in data set [3] (setting [8]) was over 30 µg/mL in each case.
